The values that follow come from ChEMBL document CHEMBL5154755, “Discovery of Novel Indazoles as Potent and Selective PI3Kδ Inhibitors with High Efficacy for Treatment of Hepatocellular Carcinoma” (J Med Chem, 2022).

Where only a bound is given, the exact number is not on record here.

For assay [1], the target named is T1, Phosphatidylinositol 4,5-bisphosphate 3-kinase catalytic subunit delta isoform (Homo sapiens, UniProt O00329).
T1 sequence (O00329 whole entry): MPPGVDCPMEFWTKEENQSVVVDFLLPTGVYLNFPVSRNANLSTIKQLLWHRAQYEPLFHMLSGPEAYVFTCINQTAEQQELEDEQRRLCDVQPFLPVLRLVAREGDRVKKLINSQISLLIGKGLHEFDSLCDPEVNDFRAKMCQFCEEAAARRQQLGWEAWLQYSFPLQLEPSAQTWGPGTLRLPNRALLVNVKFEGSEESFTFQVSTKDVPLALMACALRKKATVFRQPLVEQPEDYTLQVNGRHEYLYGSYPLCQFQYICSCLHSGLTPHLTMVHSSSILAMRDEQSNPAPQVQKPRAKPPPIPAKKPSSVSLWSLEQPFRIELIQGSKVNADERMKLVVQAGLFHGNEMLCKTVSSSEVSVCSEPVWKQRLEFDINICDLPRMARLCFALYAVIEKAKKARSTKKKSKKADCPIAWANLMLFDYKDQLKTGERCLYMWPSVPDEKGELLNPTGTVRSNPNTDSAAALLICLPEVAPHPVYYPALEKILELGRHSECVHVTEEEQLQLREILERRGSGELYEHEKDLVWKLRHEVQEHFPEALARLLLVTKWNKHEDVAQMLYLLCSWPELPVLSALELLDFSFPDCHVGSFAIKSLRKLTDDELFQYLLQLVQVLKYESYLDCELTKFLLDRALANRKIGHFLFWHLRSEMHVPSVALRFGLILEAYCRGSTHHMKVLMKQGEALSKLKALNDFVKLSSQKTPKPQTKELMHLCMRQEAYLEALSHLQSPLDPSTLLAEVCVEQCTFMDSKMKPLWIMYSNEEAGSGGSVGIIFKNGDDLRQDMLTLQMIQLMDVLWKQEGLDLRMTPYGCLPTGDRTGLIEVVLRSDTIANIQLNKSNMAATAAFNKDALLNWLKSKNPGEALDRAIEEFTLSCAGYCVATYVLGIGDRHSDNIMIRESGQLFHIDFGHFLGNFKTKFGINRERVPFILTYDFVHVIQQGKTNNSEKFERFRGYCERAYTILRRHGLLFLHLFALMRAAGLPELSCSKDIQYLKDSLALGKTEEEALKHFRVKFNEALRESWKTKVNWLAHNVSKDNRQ
The experiment in a line: Inhibition of PI3Kdelta (unknown origin) using PIP2 as substrate incubated for 1 hr in presence of ATP by ADP-Glo assay. For orientation: ADP-Glo turns the ADP formed in a reaction into a luminescent signal.

Assay [2] has as its system Bel-7402. The experiment in a line: Antiproliferative activity against human Bel-7402 cells assessed as inhibition of cell growth incubated for 72 hrs by SRB assay. Format: functional, cell-based. Particulars: Bel-7402, 72 h.
In assay [3] the test system is Hep 3B2. The experiment in a line: Antiproliferative activity against human Hep3B cells assessed as inhibition of cell growth incubated for 72 hrs by SRB assay. The assay is classed as functional, cell-based. In general terms: The SRB assay estimates cell density from bound dye.
Assay [4] has as its system Bel-7402. Kind of assay: cells. The note with it: Homo sapiens, Bel-7402, 72 h, read-out: INH.
The test system of assay [5] is HepG2. The experiment in a line: cells. The note with it: Homo sapiens, HepG2, 72 h, read-out: INH.
For assay [6], the system named is Hep 3B2. The experiment in a line: cells. The note with it: Homo sapiens, Hep3B, 72 h, read-out: INH.
The subject of assay [7] is HepG2. The experiment in a line: cells. Particulars: Homo sapiens, HepG2, 72 h.
Description: Antiproliferative activity against human HepG2 cells assessed as inhibition of cell growth incubated for 72 hrs by SRB assay

Regarding `CC(C)[C@H](Nc1ncnc2[nH]cnc12)c1nn(-c2cccnc2)c2cc(F)ccc12`, the half-maximal inhibitory concentration (IC50) is 0.072 µM in assay [1], above 40 µM in the assay on Bel-7402 [2], above 40 µM in the assay with Hep 3B2 [3] and above 40 µM in the assay on HepG2 [7]. Moreover, the inhibition at 10 µM is 5% in the assay with Bel-7402 [4], 16% in the assay with HepG2 [5] and 4% in the assay on Hep 3B2 [6].
Turning to `C[C@H](Nc1ncnc2[nH]cnc12)c1nn(-c2cccnc2)c2ccccc12`, the IC50 in assay [1] stood at 0.038 µM; in the assay with Bel-7402 [2], 11.2 µM; in the assay with Hep 3B2 [3] it was 36.6 µM; in the assay on HepG2 [7] it was 20.6 µM. The inhibition at 10 µM amounted to 40% with Bel-7402 [4], 62% in the assay with HepG2 [5] and 21% in the assay on Hep 3B2 [6].
Regarding `C[C@H](Nc1ncnc2[nH]cnc12)c1nn(-c2cccnc2)c2cc(Cl)ccc12`, the half-inhibitory concentration (IC50) in assay [1] is 0.0077 µM; in the assay with Bel-7402 [2], above 40 µM; in the assay with Hep 3B2 [3] it was above 40 µM; in the assay with HepG2 [7] it was above 40 µM. Besides, the figures for the inhibition at 10 µM in the assay on Bel-7402 [4], in the assay on HepG2 [5] and in the assay with Hep 3B2 [6] were 17%, 13% and 13%, respectively.
On to `C[C@H](Nc1ncnc(N)c1C#N)c1nn(-c2cccnc2)c2cc(F)ccc12`, for which the 50% inhibitory concentration (IC50) in assay [1] came to 0.021 µM; in the assay with Bel-7402 [2], 37.4 µM; in the assay with Hep 3B2 [3] it was 19.2 µM; in the assay with HepG2 [7] it was 25.4 µM. In addition, the figures for the inhibition at 10 µM with Bel-7402 [4], in the assay with HepG2 [5] and in the assay with Hep 3B2 [6] were -4%, 56% and 30%, respectively.
Consider `C[C@H](Nc1nc(N)nc(N)c1C#N)c1nn(-c2cccnc2)c2cc(C(F)(F)F)ccc12`, for which the IC50 worked out at 0.286 µM in assay [1], 3.19 µM in the assay with Bel-7402 [2], 9.71 µM with Hep 3B2 [3] and 1.68 µM in the assay on HepG2 [7]. Further, the inhibition at 10 µM in the assay with Bel-7402 [4] was determined as 60%; with HepG2 [5], 36%; in the assay on Hep 3B2 [6] it was 69%.
For `Cc1ccc2c(c1)c([C@H](C)Nc1ncnc3[nH]cnc13)nn2-c1cccnc1`, the IC50 was 0.274 µM in assay [1], above 40 µM in the assay with Bel-7402 [2], above 40 µM in the assay with Hep 3B2 [3] and above 40 µM in the assay with HepG2 [7]. In addition, the figures for the inhibition at 10 µM with Bel-7402 [4], in the assay on HepG2 [5] and in the assay with Hep 3B2 [6] were -10%, 18% and 8%, respectively.
In the case of `C[C@H](Nc1nc(N)nc(N)c1C#N)c1nn(-c2cccc(S(C)(=O)=O)c2)c2cc(F)ccc12`, the IC50 was found to be 0.0026 µM in assay [1], 22.1 µM with Bel-7402 [2], 19.7 µM with Hep 3B2 [3] and 19.1 µM with HepG2 [7]. Besides, the results for the inhibition at 10 µM in the assay with Bel-7402 [4], in the assay on HepG2 [5] and with Hep 3B2 [6] were 14%, 24% and 36%, respectively.
Turning to `C[C@H](Nc1nc(N)nc(N)c1C#N)c1nn(-c2cccnc2)c2cc(F)ccc12`, the half-maximal inhibitory concentration (IC50) was determined as 0.0037 µM in assay [1], 29.8 µM in the assay with Bel-7402 [2], 23.8 µM in the assay with Hep 3B2 [3] and 23.2 µM in the assay with HepG2 [7]. Further, the results for the inhibition at 10 µM in the assay with Bel-7402 [4], in the assay with HepG2 [5] and in the assay with Hep 3B2 [6] were 15%, 29% and 30%, respectively.
On to `CC[C@H](Nc1ncnc2[nH]cnc12)c1nn(-c2cccnc2)c2cc(F)ccc12`, for which the 50% inhibitory concentration (IC50) in assay [1] was 0.059 µM; in the assay with Bel-7402 [2], 29 µM; in the assay with Hep 3B2 [3], above 40 µM; in the assay with HepG2 [7] it was 33.9 µM. For the same compound, the inhibition at 10 µM in the assay on Bel-7402 [4] is 12%; in the assay on HepG2 [5] it was 26%; in the assay on Hep 3B2 [6], 4%.
In the case of `C[C@H](Nc1ncnc2[nH]cnc12)c1nn(-c2cccnc2)c2cc(F)ccc12`, the 50% inhibitory concentration (IC50) in assay [1] is 0.038 µM; with Bel-7402 [2], above 40 µM; with Hep 3B2 [3], 34.5 µM; with HepG2 [7], 37.5 µM. Also, the inhibition at 10 µM in the assay with Bel-7402 [4] turned out to be 8%; in the assay on HepG2 [5], 23%; with Hep 3B2 [6], 20%.
Consider `C[C@H](Nc1nc(N)nc(N)c1C#N)c1nn(-c2ccncc2)c2cc(F)ccc12`, for which the IC50 in assay [1] worked out at 0.0057 µM; with Bel-7402 [2], 8.31 µM; with Hep 3B2 [3], 11.6 µM; in the assay on HepG2 [7], 7.48 µM. For the same compound, the inhibition at 10 µM in the assay on Bel-7402 [4] is 43%; with HepG2 [5], 84%; in the assay with Hep 3B2 [6] it was 50%.
In the case of `CC(Nc1ncnc2[nH]cnc12)c1nn(-c2cccnc2)c2ccccc12` (racemic), the concentration for half-maximal inhibition (IC50) in assay [1] worked out at 0.392 µM; in the assay with Bel-7402 [2], 16.1 µM; with Hep 3B2 [3], 40.3 µM; with HepG2 [7], 26.2 µM. Also, the inhibition at 10 µM was determined as 4% with Bel-7402 [4], 13% with HepG2 [5] and 9% in the assay with Hep 3B2 [6].
On to `C[C@H](Nc1ncnc2[nH]cnc12)c1nn(-c2cccc(F)c2)c2cc(F)ccc12`, for which the half-maximal inhibitory concentration (IC50) in assay [1] was 0.485 µM; in the assay on Bel-7402 [2] it was above 40 µM; in the assay with Hep 3B2 [3] it was above 40 µM; with HepG2 [7], 32.3 µM. The inhibition at 10 µM was -17% in the assay with Bel-7402 [4], 33% in the assay on HepG2 [5] and 28% in the assay on Hep 3B2 [6].
For the compound `C[C@H](Nc1ncnc2[nH]cnc12)c1nn(-c2cccnc2)c2ccc(F)cc12`, the 50% inhibitory concentration (IC50) in assay [1] is 0.101 µM; in the assay with Bel-7402 [2], 31.9 µM; in the assay on Hep 3B2 [3] it was 40.1 µM; in the assay with HepG2 [7], 41.9 µM. The inhibition at 10 µM is -22% with Bel-7402 [4], 8% with HepG2 [5] and 13% in the assay on Hep 3B2 [6].
On to `C[C@H](Nc1ncnc2[nH]cnc12)c1nn(-c2cc(F)cc(F)c2)c2cc(F)ccc12`, for which the IC50 is 0.423 µM in assay [1], above 40 µM with Bel-7402 [2], above 40 µM in the assay on Hep 3B2 [3] and 22.1 µM in the assay with HepG2 [7]. Moreover, the inhibition at 10 µM is -8% in the assay with Bel-7402 [4], 30% with HepG2 [5] and 14% with Hep 3B2 [6].
Regarding `CC[C@H](Nc1nc(N)nc(N)c1C#N)c1nn(-c2cccnc2)c2cc(F)ccc12`, the IC50 is 0.0021 µM in assay [1], above 40 µM with Bel-7402 [2], 37.5 µM with Hep 3B2 [3] and above 40 µM with HepG2 [7]. For the same compound, the inhibition at 10 µM in the assay with Bel-7402 [4] was 29%; with HepG2 [5], 28%; in the assay on Hep 3B2 [6] it was 32%.
As for `C[C@H](Nc1ncnc2[nH]cnc12)c1nn(-c2ccccn2)c2cc(F)ccc12`, the IC50 in assay [1] is 2.28 µM; with Bel-7402 [2], above 40 µM; in the assay with Hep 3B2 [3], above 40 µM; in the assay on HepG2 [7] it was 29.9 µM. The inhibition at 10 µM was 7% in the assay on Bel-7402 [4], 22% in the assay with HepG2 [5] and 12% in the assay with Hep 3B2 [6].
On to `C[C@H](Nc1ncnc2[nH]cnc12)c1nn(-c2cccc(S(C)(=O)=O)c2)c2cc(F)ccc12`, for which the IC50 in assay [1] is 0.0123 µM; in the assay on Bel-7402 [2] it was 20 µM; with Hep 3B2 [3] it was 13 µM; with HepG2 [7], 14.8 µM. Moreover, the results for the inhibition at 10 µM with Bel-7402 [4], in the assay with HepG2 [5] and in the assay on Hep 3B2 [6] were -16%, 23% and 11%, respectively.
With `C[C@H](Nc1ncccc1C#N)c1nn(-c2cccnc2)c2cc(F)ccc12`, the 50% inhibitory concentration (IC50) in assay [1] is above 10 µM; in the assay with Bel-7402 [2], above 40 µM; in the assay with Hep 3B2 [3] it was above 40 µM; in the assay on HepG2 [7], above 40 µM. The values for the inhibition at 10 µM in the assay on Bel-7402 [4], with HepG2 [5] and in the assay on Hep 3B2 [6] were 11%, 24% and 10%, respectively.
As to `C[C@H](Nc1nc(N)nc(N)c1C#N)c1nn(-c2cccnc2)c2ccccc12`, the IC50 in assay [1] was found to be 0.004 µM; in the assay with Bel-7402 [2], 34.6 µM; with Hep 3B2 [3], 26.5 µM; with HepG2 [7], 32.5 µM. The inhibition at 10 µM with Bel-7402 [4] was 12%; in the assay with HepG2 [5], 10%; in the assay with Hep 3B2 [6], 20%.

A word on the IC50: it is the concentration needed to halve the response being measured.
